Test results taken from patent US8716281B2, “Pyrimidine compounds that inhibit anaplastic lymphoma kinase” (Amgen Inc., priority 2010, dated 2014).

Target: T1, wild-type human ALK cytoplasmic domain (amino acids 1058-1620) (Homo sapiens, UniProt Q9UM73)
T1 construct: The cytoplasmic domain (amino acids 1058-1620) of wild-type human ALK; GST (N); made in house; host or cells: SF9 insect cells
Experiment: ALK Inhibition in Enzyme Assay (Lance TR-FRET)
Type: biochemical
Settings: 2 nM enzyme, ATP at 40 μM (Km apparent), 90 minutes, mean of three replicates; read-out: ALK IC50
Description: ALK Inhibition in Enzyme Assay
Kinase activity of the purified protein was assessed using a Lance® TR-FRET assay. […] The reaction was allowed to proceed for 90 minutes at room temperature and was then terminated with 20 mM EDTA in 50 mM Tris (pH 7.5), 100 mM NaCl, 0.05% BSA, and 0.1% Tween-20. Phosphorylation of the peptide substrate was detected using the Lance® detection reagents streptavidin-allophycocyanin (SA-APC) and Eu-W1024 anti-phosphotyrosine antibody (PT66) from Perkin Elmer Life Sciences (Waltham, Mass.). The plates were read on a RUBY star plate reader (BMG LABTECH, Cary, N.C.) with an excitation wavelength of 320 nm.

T1 sequence (Q9UM73 1058-1620): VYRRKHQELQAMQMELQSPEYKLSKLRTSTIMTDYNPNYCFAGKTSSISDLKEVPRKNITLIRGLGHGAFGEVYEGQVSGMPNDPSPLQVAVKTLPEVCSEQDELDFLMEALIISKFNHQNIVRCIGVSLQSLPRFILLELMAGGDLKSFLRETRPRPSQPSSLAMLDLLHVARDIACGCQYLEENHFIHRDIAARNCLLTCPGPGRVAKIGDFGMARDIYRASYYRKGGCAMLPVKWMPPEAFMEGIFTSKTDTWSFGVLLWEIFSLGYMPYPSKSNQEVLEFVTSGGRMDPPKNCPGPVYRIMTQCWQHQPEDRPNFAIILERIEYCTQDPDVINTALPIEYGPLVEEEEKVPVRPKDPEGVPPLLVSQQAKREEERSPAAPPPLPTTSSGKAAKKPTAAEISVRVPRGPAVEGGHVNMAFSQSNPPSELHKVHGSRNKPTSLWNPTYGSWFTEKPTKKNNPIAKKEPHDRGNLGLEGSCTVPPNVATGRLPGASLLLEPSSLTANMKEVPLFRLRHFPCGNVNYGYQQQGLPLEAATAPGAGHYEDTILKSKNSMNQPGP

Compound	IC50 [nM]
COc1cc(Nc2nccc(N3CCNC(C(=O)NCc4ccc(C)cc4)C3)n2)cc(OC)c1OC (stereo not shown) [Example 2, N-(4-Methylbenzyl)-4-(2-(3,4,5-Trimethoxyphenylamino)Pyrimidin-4-Yl)Piperazine-2-Carboxamide]	1000 to 5000
O=C(NCc1ccc(OC(F)(F)F)cc1)[C@H]1CCCN(c2ccnc(Nc3ccc(N4CCOCC4)cc3)n2)C1 [Example 3, (S)-1-(2-(4-Morpholinophenylamino)Pyrimidin-4-Yl)-N-(4-(Trifluoromethoxy)Benzyl)Piperidine-3-Carboxamide]	100 to 1000
COc1cc(Nc2nccc(N3CCSC(C(=O)NCc4ccc(C)cc4)C3)n2)cc(OC)c1OC (stereo not shown) [Example 4, N-(4-Methylbenzyl)-4-(2-(3,4,5-Trimethoxy-Phenylamino)Pyrimidin-4-Yl)Thiomorpholine-2-Carboxamide]	1000 to 5000
COc1cc(Nc2nccc(N3CCOC(C(=O)NCc4ccc(C)cc4)C3)n2)cc(OC)c1OC (stereo not shown) [Example 5, N-(4-Methylbenzyl)-4-(2-(3,4,5-Trimethoxy-Phenylamino)Pyrimidin-4-Yl)Morpholine-2-Carboxamide]	1000 to 5000
COc1cc(Nc2ncc(C)c(N3CCC[C@H](C(=O)NCc4ccc(C)cc4)C3)n2)cc(OC)c1OC [Example 8, (S)-1-(5-Methyl-2-(3,4,5-Trimethoxyphenyl-Amino)Pyrimidin-4-Yl)-N-(4-Methylbenzyl)Piperidine-3-Carboxamide]	1000 to 5000
COc1cc(Nc2ncc(C)c(N3CCC[C@@H](C(=O)NCc4ccc(C)cc4)C3)n2)cc(OC)c1OC [Example 9, (R)-1-(5-Methyl-2-(3,4,5-Trimethoxyphenyl-Amino)Pyrimidin-4-Yl)-N-(4-Methylbenzyl)Piperidine-3-Carboxamide]	100 to 1000
COc1cc(Nc2ncc(Cl)c(N3CCC[C@H](C(=O)NCc4ccc(C)cc4)C3)n2)cc(OC)c1OC [Example 10, (S)-1-(5-Chloro-2-(3,4,5-Trimethoxyphenyl-Amino)Pyrimidin-4-Yl)-N-(4-Methylbenzyl)Piperidine-3-Carboxamide]	100 to 1000

Next, values leading:

IC50 [nM]	Compound
100 to 1000	COc1cc(Nc2nccc(N3CC(C(=O)NCc4ccc(C)cc4)CCC3C)n2)cc(OC)c1OC (mixture of isomers) [Example 194, 6-Methyl-N-(4-Methylbenzyl)-1-(2-(3,4,5-Trimethoxyphenylamino)Pyrimidin-4-Yl)Piperidine-3-Carboxamide]
1000 to 5000	COc1cc(Nc2nccc(N3CC(C)CC(C(=O)NCc4ccc(C)cc4)C3)n2)cc(OC)c1OC (mixture of isomers) [Example 195, 5-Methyl-N-(4-Methylbenzyl)-1-(2-(3,4,5-Trimethoxyphenyl Amino)Pyrimidin-4-Yl)Piperidine-3-Carboxamide]
5000 to 10000	COc1cc(Nc2nc(C)cc(N3CCC[C@H](C(=O)NCc4ccc(C)cc4)C3)n2)cc(OC)c1OC [Example 11, (S)-1-(6-Methyl-2-(3,4,5-Trimethoxyphenyl-Amino)Pyrimidin-4-Yl)-N-(4-Methylbenzyl)Piperidine-3-Carboxamide]
> 10000	COc1cc(Nc2nc(Cl)cc(N3CCC[C@H](C(=O)NCc4ccc(C)cc4)C3)n2)cc(OC)c1OC [Example 12, (S)-1-(6-Chloro-2-(3,4,5-Trimethoxyphenyl-Amino)Pyrimidin-4-Yl)-N-(4-Methylbenzyl)Piperidine-3-Carboxamide]
1000 to 5000	COc1cc(Nc2nccc(N3CCC[C@@H](C(=O)NCc4ccc(F)cc4)C3)n2)cc(OC)c1OC [Example 13, (R)—N-(4-Fluorobenzyl)-1-(2-(3,4,5-Trimethoxy-Phenylamino)Pyrimidin-4-Yl)Piperidine-3-Carboxamide]
100 to 1000	COc1cc(Nc2nccc(N3CCC[C@H](C(=O)NCc4ccc(F)cc4)C3)n2)cc(OC)c1OC [Example 14, (S)-N-((4-fluorophenyl)methyl)-1-(2-((3,4,5-tris(methyloxy)phenyl)amino)-4-pyrimidinyl)-3-piperidinecarboxamide]
